Assay results: patent US20120164575A1, “CYCLIC COMPOUND, MANUFACTURING METHOD THEREFOR, RADIATION-SENSITIVE COMPOSITION, AND METHOD FOR FORMING A RESIST PATTERN” (MITSUBISHI GAS CHEMICAL COMPANY, INC., priority 2009, published 2012)

Assay: Solubility of compound in safety solvent
Type: physicochemical
Conditions: for solubility in CHN: cyclohexanone (CHN); for solubility in PGME: propylene glycol monomethyl ether (PGME); for solubility in PGMEA: propylene glycol monomethyl ether acetate (PGMEA)
Protocol: The compounds obtained in Synthesis Examples 1 to 6 and Synthesis 1 to 4 were evaluated for the solubility in propylene glycol monomethyl ether acetate (PGMEA), propylene glycol monomethyl ether (PGME) and cyclohexanone (CHN).
A: 4.0 wt %≦dissolved amount
B: 1.0 wt %≦dissolved amount<4.0 wt %
C: dissolved amount<1.0 wt %

Row | Structure (SMILES) | solubility in CHN | solubility in PGME | solubility in PGMEA
1 | Oc1cc(O)c2cc1C(c1ccc(C3CCCCC3)cc1)c1cc(c(O)cc1O)C(c1ccc(C3CCCCC3)cc1)c1cc(c(O)cc1O)C(c1ccc(C3CCCCC3)cc1)c1cc(c(O)cc1O)C2c1ccc(C2CCCCC2)cc1 (stereo not drawn) [CR-4A] | B (1.0 wt %≦dissolved amount<4.0 wt %) | B (1.0 wt %≦dissolved amount<4.0 wt %) | C (dissolved amount<1.0 wt %)
2 | CC(C)c1ccc(C2c3cc(c(O)cc3O)C(c3ccc(C(C)C)cc3)c3cc(c(O)cc3O)C(c3ccc(C(C)C)cc3)c3cc(c(O)cc3O)C(c3ccc(C(C)C)cc3)c3cc2c(O)cc3O)cc1 (stereo not drawn) [CR-1A] | B (1.0 wt %≦dissolved amount<4.0 wt %) | B (1.0 wt %≦dissolved amount<4.0 wt %) | C (dissolved amount<1.0 wt %)
3 | Oc1cc(O)c2cc1C(c1ccc(-c3ccccc3)cc1)c1cc(c(O)cc1O)C(c1ccc(-c3ccccc3)cc1)c1cc(c(O)cc1O)C(c1ccc(-c3ccccc3)cc1)c1cc(c(O)cc1O)C2c1ccc(-c2ccccc2)cc1 (stereo not drawn) [CR-3A] | B (1.0 wt %≦dissolved amount<4.0 wt %) | C (dissolved amount<1.0 wt %) | C (dissolved amount<1.0 wt %)
4 | CC(C)Cc1ccc(C2c3cc(c(O)cc3O)C(c3ccc(CC(C)C)cc3)c3cc(c(O)cc3O)C(c3ccc(CC(C)C)cc3)c3cc(c(O)cc3O)C(c3ccc(CC(C)C)cc3)c3cc2c(O)cc3O)cc1 (stereo not drawn) [CR-2A] | B (1.0 wt %≦dissolved amount<4.0 wt %) | C (dissolved amount<1.0 wt %) | C (dissolved amount<1.0 wt %)
